Data published in patent publication US20190167716A9, “Use of Electrolyzed Water for Treatment and Prevention of Common Livestock Diseases and Conditions, Including PRRS” (priority 2013, published 2019).

System: streptococcus
Assay: Fog test in bi-room swine confinement infected with streptococcus
Assay type: in vivo
Details: both rooms after a course of R-pen; recurred 10 days later in the control room
Method: A test was conducted in a 70′×280′ bi-room configuration swine confinement in a wean to finish operation infected with streptococcus symptoms and showing severe symptoms. The swine confinement included a common effluent pit with center dividing wall and pit level equalization cutouts at the base. Each room included a standard layout with […] and a 24 inch gated alleyway. Capacity was 2480 head, each room was 70 feet by 140 feet; one room was used as the test room to receive the electrolyzed water treatment, the other as a control. Two high pressure lines, centered through the barn at 12 inches below the ceiling, were used to deliver the electrolyzed water. The water was delivered via 60 nozzles in the treatment room, rated at 0.020 gallons per minute, two for each pen, at 1000 psi. The output of fog or mist to the room was 1.2 gallon per minute, delivered by 1000 psi 3 gpm 2 horsepower pump, actuated by a preset timer. The fog was administered for about 1 minute, each of four times a day at generally equally spaced intervals. Total was about 4.8 gallons per 24 hour period.
Both rooms were filled Oct. 17, 2013. Treatment began 1 week later and continued for 15 weeks. […] The death report, per room per week during the 15 week trial was as follows: […]

With `CC1(C)S[C@@H]2[C@H](NC(=O)Cc3ccccc3)C(=O)N2[C@H]1C(=O)[O-].[K+]` [R-pen] the strep symptoms was “decrease in strep symptoms”.
